# Test results published in patent publication US11471481B2, “Rapid-deposition thin-film forming compositions as effective wound care treatment” (priority 2016, dated 2022).
# Like-named read-outs stand apart in the source and are kept apart here.
# Legend:
# [1] = Solubility of PVP-I in different organic solvents; type: physicochemical
# Procedure: PVP-I is a polymer complex soluble in water.
# To make PVP-I liquid bandage solutions to form rapid-deposition film on skin surface, low boiling-point volatile solvents were selected to study solubility of PVP-I and the time required for the solvent to evaporate to dryness. […] When ethanol alone was the solvent, the drying time was 3 minutes 27 seconds. A mixed solvent has even shorter drying time. Particularly, when the mixed solvent contains acetone and isopentane (which have low boiling points), drying time had been shortened to less than 2 minutes, as the mixed solvents could form azeotropes, which was easier to evaporate. Isopentane had some irritation to skin, and thus its dosage could not be too high. From the study, dosage greater than 15% of isopentane could not shorten the drying time, but instead increase the skin irritation. n-Pentane is not used because of its pungent smell. Therefore, after a preliminary study, ethanol, ethyl acetate, acetone and isopentane alone or combinations were chosen as the solvent phase in this invention.
# [2] = system: human skin fibroblast; conditions: cited from earlier work
substance,measurement,setting,value
Povidone iodine [PVP-I],Solubility of PVP-I in ethanol,[1]; ethanol,readily soluble
same,"Solubility of PVP-I in ethyl acetate, acetone, isopentane and n-pentane","[1]; ethyl acetate, acetone, isopentane, n-pentane",insoluble
same,Fibroblast growth,[2]; 0.01% and 0.025% PVP-I solutions,progressively retarded
same,Fibroblast growth,[2]; 0.1% and 1% PVP-I solutions,totally inhibited
